How the values were obtained:
KCHSC = assay: Greenhouse test, post-emergence (PO) application, foliar effect; type: in vivo, Kochia scoparia; conditions: (A) 50, (B) 20, mixture 50 + 20 g of AS/ha, 3 weeks after application
From the text: (§1) The 1:1 mixture of the two soil types was used specifically for cultivating small-seeded dicotyledonous weed since the standard field soil on its own tends to silt up, which may have an adverse effect on the emergence of small-seeded weeds. The resistances mentioned in the tables were confirmed beforehand in standard monitoring experiments. Nevertheless, the origins examined may have additional, hitherto unconfirmed resistances to various mechanisms of action.
(§2) The pots were then cultivated in a greenhouse (12-16 h light, temperature day 20-22° C., night 15-18° C.) until the time of application. The pots were treated at various BBCH stages of the seeds/plants on a laboratory track sprayer with spray liquors comprising the compositions according to the invention, mixtures of the prior art or the individual components. Application of the active compounds or active compound combinations and wetting agents formulated as WG, WP, EC or otherwise was carried out at the appropriate growth stages of the plants. The amount of water used for spray application was 100-600 l/ha. After the treatment, the plants were returned to the greenhouses and fertilized and watered as required. The pots were cultivated in a greenhouse (12-16 h light, temperature day 20-22° C., night 15-18° C.).
(§3) 3 weeks after the application, the foliar effect was evaluated on a scale of 0-100%:
(§4) 0%=no noticeable effect compared to untreated plants
(§5) 100%=full effect compared to untreated plants
(§6) The following abbreviations were used: • BBCH the BBCH code provides information about the morphological development stage of a plant. Officially, the abbreviation denotes the Biologische Bundesanstalt, Bundessortenamt and CHemische Industrie [Federal Biological Institute for Agriculture and Forestry, Federal Office for Crop Plant Varieties, Chemical Industry]. The range of BBCH 00-10 denotes the germination stages of the seeds until surface penetration. The range of BBCH 11-25 denotes the leaf development stages until stocking (corresponds to the number of tillers or side-shoots). • PE pre-emergence soil application; BBCH of the seeds/plants 00-10 • PO post-emergence application on the green parts of the plants; BBCH of the plants 11-25 • IU soil loamy silt—standard field soil • l/ha liters per hectare • S sensitive—the weed populations are sensitive to the active compounds tested • TSR target-site resistance. The weed populations comprise biotypes having a site-of-action-specific resistance, i.e. the binding site at the site of action is modified as a result of natural mutations in the gene sequence so that the active compounds are no longer able to bind, or bind in an unsatisfactory manner, and are therefore no longer able to act. • NTR non-target-site herbicide resistance; this is differentiated, inter alia, into EMR (Enhanced Metabolic Resistance) (the weed populations comprise biotypes having metabolic resistance, i.e. the plants are capable of metabolizing the active compounds more quickly via enzyme complexes, i.e. the active compounds are degraded more quickly in the plant), into reduced penetration into the plant, reduced translocation in the plant, accelerated excretion. […]

BRODI [1] = assay: as above; type: in vivo, Bromus diformis; conditions: (A) 50, (B) 20, mixture 50 + 20 g of AS/ha, 3 weeks after application
From the text: as §1, §2, §3, §4, §5, §6

EPHHL = assay: as above; type: in vivo, Euphorbia heterophylla; conditions: (A) 50, (B) 20, mixture 50 + 20 g of AS/ha, 3 weeks after application
From the text: as §1, §2, §3, §4, §5, §6

LOLSS = assay: as above; type: in vivo, Lolium spp.; conditions: (A) 50, (B) 20, mixture 50 + 20 g of AS/ha, 3 weeks after application
From the text: as §1, §2, §3, §4, §5, §6

ERIBO = assay: as above; type: in vivo, Erigeron bonariensis; conditions: (A) 50, (B) 20, mixture 50 + 20 g of AS/ha, 3 weeks after application
From the text: as §1, §2, §3, §4, §5, §6

BRODI [2] = assay: Greenhouse test, pre-emergence (PE) soil application; type: in vivo, Bromus diformis; set-up: key: % effect: 0 = no effect, 100 = full effect vs untreated
From the text: as §1, §2, §3, §4, §5, §6

BIDSU = assay: as above; type: in vivo, Bidens subalternans
From the text: as §1, §2, §3, §4, §5, §6

APESV = assay: as above; type: in vivo, Apera spica-venti; set-up: key: % effect: 0 = no effect, 100 = full effect vs untreated
From the text: as §1, §2, §3, §4, §5, §6

[3] = test system: TTTTT (all resistant and sensitive biotypes); assay: Greenhouse test, PE application, mean over all resistant and sensitive biotypes; type: in vivo; conditions: (A) 12.5, (B) 20, mixture 12.5 + 20 g of AS/ha; for TTTTT resistant mean (effect): mean of resistant biotypes (n = 16); for TTTTT sensitive mean (effect): mean of sensitive biotypes (n = 11)
From the text: as §1, §2, §3, §4, §5, §6

[4] = KCHSC resistant - group B (TSR)
[5] = BRODI resistant - group A (TSR), B (NTR) and G (NTR)
[6] = EPHHL resistant - group B (TSR) and G (NTR)
[7] = EPHHL resistant - group B (TSR)
[8] = LOLSS resistant - group G (NTR)
[9] = LOLSS resistant group A (TSR, NTR), B (NTR) and C2 (NA)
[10] = LOLSS resistant group A (TSR, NTR), B (TSR, NTR) and C2 (NA)
[11] = ERIBO resistant - group B (NA) and G (NTR)
[12] = group (B) compound alone, 20 g of AS/ha

Structure (SMILES) | foliar effect (KCHSC; [4]) | foliar effect (KCHSC; KCHSC sensitive) | foliar effect (BRODI [1]; [5]) | foliar effect (BRODI [1]; BRODI sensitive) | foliar effect (EPHHL; [6]) | foliar effect (EPHHL; [7]) | foliar effect (EPHHL; EPHHL sensitive) | foliar effect (LOLSS; [8]) | foliar effect (LOLSS; [9]) | foliar effect (LOLSS; [10]) | foliar effect (LOLSS; LOLSS sensitive) | foliar effect (ERIBO; [11]) | foliar effect (ERIBO; ERIBO sensitive) | TTTTT resistant mean (effect) [3] | TTTTT sensitive mean (effect) [3] | effect on BRODI resistant - group A (TSR), B (NTR) and G (NTR) (BRODI [2]; [12]) | effect on BRODI sensitive (BRODI [2]; [12]) | effect on BIDSU sensitive (BIDSU; [12]) | effect on APESV resistant - group B (TSR, NTR) and K1/3 (NA) (APESV; [12]) | effect on APESV sensitive (APESV; [12]) | further results
Cc1ccc2c(c1)[C@H](Nc1nc(N)nc(C(C)F)n1)[C@@H](C)C2 (stereo partly drawn) [(A), indaziflam] | 30% | 30% | 65% | 70% | 50% | 55% | 60% | 65% | 60% | 60% | 75% | 50% | 50% | 52% | 68% | – | – | – | – | – | effect on BRODI resistant - group A (TSR), B (NTR) and G (NTR) (BRODI [2]; (A) alone, 12.5 g of AS/ha): 70; effect on BRODI sensitive (BRODI [2]; (A) alone, 12.5 g of AS/ha): 75; effect on BIDSU sensitive (BIDSU; (A) alone, 12.5 g of AS/ha): 50; effect on APESV resistant - group B (TSR, NTR) and K1/3 (NA) (APESV; (A) alone, 12.5 g of AS/ha): 70; effect on APESV sensitive (APESV; (A) alone, 12.5 g of AS/ha): 90
COc1cc(OC)nc(NC(=O)NS(=O)(=O)c2ncccc2C(F)(F)F)n1 [(B1), flazasulfuron] | 0% | 90% | 75% | 100% | 40% | 30% | 80% | 60% | 60% | 30% | 95% | 50% | 90% | 32% | 75% | 70 | 80 | 80 | 40 | 85 | –
COc1cc(OC)nc(NC(=O)NS(=O)(=O)c2cc(NC=O)ccc2C(=O)N(C)C)n1 [(B2), foramsulfuron] | 0% | 90% | 75% | 100% | 40% | 30% | 80% | 50% | 60% | 40% | 100% | 40% | 50% | 22% | 73% | 70 | 75 | 30 | 20 | 95 | –
CCS(=O)(=O)c1cccnc1S(=O)(=O)NC(=O)Nc1nc(OC)cc(OC)n1 [(B3), rimsulfuron] | 0% | 90% | 75% | 100% | 50% | 60% | 80% | 60% | 60% | 15% | 95% | 60% | 90% | 24% | 75% | 70 | 80 | 80 | 35 | 93 | –
CCOC(=O)c1ccccc1S(=O)(=O)NC(=O)Nc1nc(Cl)cc(OC)n1 [(B4), chlorimuron-ethyl] | 0% | 90% | 70% | 100% | 30% | 30% | 60% | 50% | 55% | 0% | 35% | 60% | 80% | 29% | 82% | 80 | 95 | 90 | 40 | 90 | –
COC(=O)c1csc(C)c1S(=O)(=O)NC(=O)n1nc(OC)n(C)c1=O [(B5), thiencarbazone-methyl] | 0% | 90% | 50% | 95% | 30% | 20% | 70% | 40% | 50% | 0% | 85% | 60% | 70% | 22% | 73% | 70 | 70 | 75 | 20 | 95 | –

Reference: patent US9439430B2, “Method of controlling resistant harmful plants” (priority 2012, dated 2016)
